US10081624B2, “Heterocyclic compound” (Takeda Pharmaceutical Company Limited, priority 2014, dated 2018)

Legend:
HDAC1 enzyme = molecular target: T1, HDAC1 enzyme (Homo sapiens, UniProt Q13547); experiment: HDAC1 enzyme inhibitory assay (HDAC-Glo I/II Assay kit); format: biochemical; conditions: 1 μM test compound; for inhibition at 1 µM: read-out: HDAC1 inhibitory rate (%) (1 μM)
T1 construct: prepared by transducing full length HDAC1 and HDAC6 genes into Sf-9 insect cells; GST; purchased SignalChem; host or cells: Sf-9 insect cells
In short: (§1)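 Luminescent HDAC-Glo I/II read-out after 20 min room-temperature reaction with substrate-developer, following a 60 min room-temperature enzyme–compound preincubation. Enzymes: full-length HDAC1 or HDAC6 from Sf-9 cells, GST-purified; buffer pH 7.5 Tris with NaCl, glutathione, 0.01% Tween-20. No-enzyme wells defined 100% inhibition.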

HDAC6 enzyme = molecular target: T2, HDAC6 enzyme (Homo sapiens, UniProt Q9UBN7); experiment: HDAC6 enzyme inhibitory assay (HDAC-Glo I/II Assay kit); format: biochemical; conditions: 1 μM test compound; read-out: HDAC6 inhibitory rate (%) (1 μM)
T2 construct: prepared by transducing full length HDAC1 and HDAC6 genes into Sf-9 insect cells; GST; purchased SignalChem; host or cells: Sf-9 insect cells
T2 sequence (Q9UBN7 1-1215): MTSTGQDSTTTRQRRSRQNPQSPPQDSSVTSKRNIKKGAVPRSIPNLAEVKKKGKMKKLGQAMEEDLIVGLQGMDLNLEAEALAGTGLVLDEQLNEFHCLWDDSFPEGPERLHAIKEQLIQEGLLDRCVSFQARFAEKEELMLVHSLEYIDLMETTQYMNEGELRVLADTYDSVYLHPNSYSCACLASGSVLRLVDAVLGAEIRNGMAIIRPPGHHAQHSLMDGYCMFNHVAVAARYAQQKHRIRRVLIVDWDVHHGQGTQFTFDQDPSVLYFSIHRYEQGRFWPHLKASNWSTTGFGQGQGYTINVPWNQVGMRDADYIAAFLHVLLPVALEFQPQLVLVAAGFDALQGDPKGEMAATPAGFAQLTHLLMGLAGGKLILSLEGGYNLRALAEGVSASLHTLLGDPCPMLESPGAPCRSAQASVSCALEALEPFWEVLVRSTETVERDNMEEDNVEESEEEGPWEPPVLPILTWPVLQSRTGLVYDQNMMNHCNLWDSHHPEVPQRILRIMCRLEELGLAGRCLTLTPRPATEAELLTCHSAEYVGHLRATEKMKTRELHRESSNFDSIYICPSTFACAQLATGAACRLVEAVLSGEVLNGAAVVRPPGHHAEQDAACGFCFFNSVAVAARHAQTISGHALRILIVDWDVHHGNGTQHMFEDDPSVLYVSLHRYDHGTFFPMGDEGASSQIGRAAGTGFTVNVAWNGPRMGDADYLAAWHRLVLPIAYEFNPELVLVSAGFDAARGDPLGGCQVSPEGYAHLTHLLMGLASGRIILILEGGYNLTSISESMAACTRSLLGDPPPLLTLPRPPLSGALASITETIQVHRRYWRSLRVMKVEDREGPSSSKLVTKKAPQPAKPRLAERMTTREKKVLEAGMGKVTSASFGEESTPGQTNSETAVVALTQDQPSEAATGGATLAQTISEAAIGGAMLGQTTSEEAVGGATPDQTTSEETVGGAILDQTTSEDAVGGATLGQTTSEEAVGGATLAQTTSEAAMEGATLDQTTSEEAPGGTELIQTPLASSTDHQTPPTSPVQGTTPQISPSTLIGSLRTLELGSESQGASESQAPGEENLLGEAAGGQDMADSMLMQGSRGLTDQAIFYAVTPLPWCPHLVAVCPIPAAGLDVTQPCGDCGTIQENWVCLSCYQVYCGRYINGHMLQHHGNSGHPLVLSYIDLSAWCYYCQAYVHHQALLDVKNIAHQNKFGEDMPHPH
In short: as §1

T1 sequence (Q13547 whole entry): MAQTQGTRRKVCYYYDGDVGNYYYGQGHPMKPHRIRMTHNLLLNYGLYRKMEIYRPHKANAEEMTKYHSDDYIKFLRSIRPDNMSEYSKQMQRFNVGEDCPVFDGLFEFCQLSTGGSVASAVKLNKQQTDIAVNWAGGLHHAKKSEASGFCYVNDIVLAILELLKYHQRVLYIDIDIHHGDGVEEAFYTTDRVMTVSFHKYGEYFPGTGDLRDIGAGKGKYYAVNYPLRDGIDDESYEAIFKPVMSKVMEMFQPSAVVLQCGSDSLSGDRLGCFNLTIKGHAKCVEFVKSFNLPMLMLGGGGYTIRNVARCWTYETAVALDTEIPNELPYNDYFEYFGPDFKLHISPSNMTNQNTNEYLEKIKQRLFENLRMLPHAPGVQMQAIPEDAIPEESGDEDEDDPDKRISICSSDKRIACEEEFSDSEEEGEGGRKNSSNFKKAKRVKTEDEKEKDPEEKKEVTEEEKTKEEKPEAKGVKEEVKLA

SMILES | inhibition at 1 µM (HDAC1 enzyme) [%] | inhibition at 1 µM (HDAC6 enzyme) [%] | HDAC1 inhibitory rate (%) (1 μM) (HDAC1 enzyme; 1 µM)
O=C(NCCO)c1cccc(C(=O)N2CCOC[C@@H]2CNC(=O)c2ccc(-c3noc(C(F)(F)F)n3)cc2)c1 [Example 271, N-(2-hydroxyethyl)-3-(((3S)-3-(((4-(5-(trifluoromethyl)-1,2,4-oxadiazol-3-yl)benzoyl)amino)methyl)morpholin-4-yl)carbonyl)benzamide] | 7 | 94 | –
O=C(NC[C@H]1COCCN1C(=O)N1CCOCC1CO)c1ccc(-c2noc(C(F)(F)F)n2)cc1 (stereo partly drawn) [Example 310, N-(((3S)-4-((3-(hydroxymethyl)morpholin-4-yl)carbonyl)morpholin-3-yl)methyl)-4-(5-(trifluoromethyl)-1,2,4-oxadiazol-3-yl)benzamide] | – | 98 | 3
NC(=O)[C@@H]1CCCN1C(=O)N1CCOC[C@@H]1CNC(=O)c1ccc(-c2noc(C(F)(F)F)n2)cc1 [Example 283, 1-(((3S)-3-(((4-(5-(trifluoromethyl)-1,2,4-oxadiazol-3-yl)benzoyl)amino)methyl)morpholin-4-yl)carbonyl)-L-prolinamide] | -1 | 73 | –
O=C(NC[C@H]1COCCN1C(=O)N1CCCC2(COC2)C1)c1ccc(-c2noc(C(F)(F)F)n2)cc1 [Example 281, N-(((3S)-4-(2-oxa-6-azaspiro[3.5]non-6-ylcarbonyl)morpholin-3-yl)methyl)-4-(5-(trifluoromethyl)-1,2,4-oxadiazol-3-yl)benzamide] | 7 | 93 | –
Cc1nnsc1C(=O)N1CCOCC1CNC(=O)c1ccc(-c2noc(C(F)(F)F)n2)s1 (stereo not shown) [Example 237, N-((4-((4-methyl-1,2,3-thiadiazol-5-yl)carbonyl)morpholin-3-yl)methyl)-5-(5-(trifluoromethyl)-1,2,4-oxadiazol-3-yl)thiophene-2-carboxamide] | 27 | 98 | –
Cc1noc(C)c1C(=O)N1CCOC[C@@H]1CNC(=O)c1ccc(-c2noc(C(F)(F)F)n2)cc1 [Example 88, N-(((3S)-4-((3,5-dimethyl-1,2-oxazol-4-yl)carbonyl)morpholin-3-yl)methyl)-4-(5-(trifluoromethyl)-1,2,4-oxadiazol-3-yl)benzamide] | 38 | 100 | –
Cc1nnsc1C(=O)N1CCOC[C@@H]1CNC(=O)c1ccc(-c2noc(C(F)(F)F)n2)cn1 [Example 195, N-(((3S)-4-((4-methyl-1,2,3-thiadiazol-5-yl)carbonyl)morpholin-3-yl)methyl)-5-(5-(trifluoromethyl)-1,2,4-oxadiazol-3-yl)pyridine-2-carboxamide] | 40 | 98 | –
Cn1nccc1C(=O)N1CCOC[C@@H]1CNC(=O)c1ccc(-c2noc(C(F)(F)F)n2)cc1 [Example 38, N-(((3S)-4-((1-methyl-1H-pyrazol-5-yl)carbonyl)morpholin-3-yl)methyl)-4-(5-(trifluoromethyl)-1,2,4-oxadiazol-3-yl)benzamide] | 25 | 100 | –
O=C(NC[C@H]1COCCN1C(=O)N1CCC(CCO)CC1)c1ccc(-c2noc(C(F)(F)F)n2)cc1 [Example 279, N-(((3S)-4-((4-(2-hydroxyethyl)piperidin-1-yl)carbonyl)morpholin-3-yl)methyl)-4-(5-(trifluoromethyl)-1,2,4-oxadiazol-3-yl)benzamide] | 10 | 90 | –
O=C(NC[C@H]1COCCN1C(=O)c1cc(F)cc(F)c1)c1ccc(-c2noc(C(F)(F)F)n2)cc1 [Example 39, N-(((3S)-4-(3,5-difluorobenzoyl)morpholin-3-yl)methyl)-4-(5-(trifluoromethyl)-1,2,4-oxadiazol-3-yl)benzamide] | 18 | 100 | –
COc1cccc(C(=O)N2CCOCC2CNC(=O)c2ccc(-c3noc(C(F)(F)F)n3)cc2)c1 (stereo not shown) [Example 29, N-((4-(3-methoxybenzoyl)morpholin-3-yl)methyl)-4-(5-(trifluoromethyl)-1,2,4-oxadiazol-3-yl)benzamide] | 19 | 99 | –
